Results as given in patent US9738634B2, “Heterocyclic amide compound and herbicide” (SYNGENTA PARTICIPATIONS AG, priority 2013, dated 2017).

Key:
Format in all cases: in vivo
Conditions in all cases: treatment dosage 320 g/ha
wheat [1] = assay: Test Example 4: foliar treatment, effect on crop; e: wheat
Outline: (§1)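 Seeds are spot-sown into sterilized diluvial soil and covered with about 1.5 cm of soil. After 14 days' greenhouse growth at 25 to 30° C, plants are sprayed on stems and leaves with diluted emulsion at the stated g/ha rate, then scored at 3 weeks.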

wheat [2] = assay: Test Example 3: soil treatment, effect on crop; e: wheat
Outline: (§2)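 Crop and weed responses were judged three weeks after a uniform surface spray of the water-diluted emulsion at the given g/ha rate. Seeds sat beneath about 1.5 cm of sterilized diluvial soil, and boxes stood in a greenhouse at 25 to 30° C.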

rapeseed [3] = assay: Test Example 4: foliar treatment, effect on crop; g: rapeseed
Experimental: (§3) Testing of Weedkilling Efficacy by Foliar Treatment
(§4) Sterilized diluvial soil was introduced into 21 cm long, 13 cm wide, 7 cm deep plastic boxes, and seeds of crabgrass, green foxtail, barnyard grass, wild oat, black-grass, Italian ryegrass, common wind-grass, Indian mallow, redroot pigweed, fig-leafed goosefoot, chickweed, catchweed, birds-eye speedwell, corn, soybean, rice, wheat, beet and rapeseed were each spot-sown, and covered with about 1.5 cm of soil, then the plants were grown in a greenhouse at 25 to 30° C.
(§5) After they had grown for 14 days, emulsions of compounds of the present invention prepared according to compounding example 2 were diluted with water to give the specified dosages, and applied uniformly onto the stem and leaf parts with a small sprayer. 3 weeks after the pesticide treatment the effect on each type of plant was investigated on the basis of the assessment criteria of test example 1.
(§6) A: barnyard grass, B: bulrush, C: oval-leafed pondweed, D: crabgrass, E: green foxtail, F: barnyard grass, G: wild oat, H: black-grass, I: Italian ryegrass, J: common wind-grass, K: Indian mallow, L: redroot pigweed, M: fig-leafed goosefoot, N: chickweed, O: catchweed, p: birds-eye speedwell, a: transplanted rice, b: directly sown rice, c: corn, d: soybean, e: wheat, f: beet, g: rapeseed
(§7) Further, pesticide dosage (g/ha) indicates the concentration regulated such that treatment was with only the stated number of grams (g), when calculated per hectare (ha).

barnyard grass [4] = assay: Test Example 3: weedkilling efficacy through soil treatment; F: barnyard grass
Outline: as §2

wild oat [5] = assay: Test Example 4: weedkilling efficacy by foliar treatment; G: wild oat
Outline: as §1

transplanted rice = assay: Test Example 1: preemergent weed treatment in the submerged state, effect on crop; a: transplanted rice
Outline: (§8)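 Emulsion diluted with water to the specified per-hectare dosage is applied onto flood water (4 cm) over alluvial soil on the sowing day, with barnyard grass, bulrush and pondweed seeded and rice (2.5-leaf) transplanted; plants grow at 25–30 °C and are rated at 3 weeks.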

catchweed = assay: Test Example 4: weedkilling efficacy by foliar treatment; O: catchweed
Outline: as §1

Italian ryegrass [6] = assay: Test Example 4: weedkilling efficacy by foliar treatment; I: Italian ryegrass
Outline: as §1

crabgrass [7] = assay: Test Example 4: weedkilling efficacy by foliar treatment; D: crabgrass
Outline: as §1

wild oat [8] = assay: Test Example 3: weedkilling efficacy through soil treatment; G: wild oat
Outline: as §2

Indian mallow [9] = assay: Test Example 3: weedkilling efficacy through soil treatment; K: Indian mallow
Outline: as §2

barnyard grass [10] = assay: Test Example 4: weedkilling efficacy by foliar treatment; F: barnyard grass
Experimental: as §3, §4, §5, §6, §7

redroot pigweed [11] = assay: Test Example 4: weedkilling efficacy by foliar treatment; L: redroot pigweed
Outline: as §1

chickweed [12] = assay: Test Example 3: weedkilling efficacy through soil treatment; N: chickweed
Outline: as §2

fig-leafed goosefoot [13] = assay: Test Example 3: weedkilling efficacy through soil treatment; M: fig-leafed goosefoot
Outline: as §2

corn [14] = assay: Test Example 4: foliar treatment, effect on crop; c: corn
Outline: as §1

crabgrass [15] = assay: Test Example 3: weedkilling efficacy through soil treatment; D: crabgrass
Outline: as §2

common wind-grass [16] = assay: Test Example 3: weedkilling efficacy through soil treatment; J: common wind-grass
Outline: as §2

Italian ryegrass [17] = assay: Test Example 3: weedkilling efficacy through soil treatment; I: Italian ryegrass
Outline: as §2

bulrush [18] = assay: Test Example 2: weedkilling efficacy, growth period weed treatment in the submerged state; B: bulrush
Outline: (§9)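 First, alluvial soil in pots is flooded to 4 cm and mixed seed is sown. Next, plants grow in a greenhouse at 25 to 30° C until the 1-2 leaf stage. Then diluted emulsion is applied onto the water surface at the given g/ha rate, and injury is assessed after 3 weeks.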

barnyard grass [19] = assay: Test Example 1: weedkilling efficacy, preemergent weed treatment in the submerged state; A: barnyard grass
Outline: as §8

green foxtail [20] = assay: Test Example 3: weedkilling efficacy through soil treatment; E: green foxtail
Outline: as §2

barnyard grass [21] = assay: Test Example 2: weedkilling efficacy, growth period weed treatment in the submerged state; A: barnyard grass
Outline: as §9

rapeseed [22] = assay: Test Example 3: soil treatment, effect on crop; g: rapeseed
Outline: as §2

redroot pigweed [23] = assay: Test Example 3: weedkilling efficacy through soil treatment; L: redroot pigweed
Outline: as §2

black-grass [24] = assay: Test Example 4: weedkilling efficacy by foliar treatment; H: black-grass
Outline: as §1

oval-leafed pondweed [25] = assay: Test Example 1: weedkilling efficacy, preemergent weed treatment in the submerged state; C: oval-leafed pondweed
Outline: as §8

fig-leafed goosefoot [26] = assay: Test Example 4: weedkilling efficacy by foliar treatment; M: fig-leafed goosefoot
Outline: as §1

chickweed [27] = assay: Test Example 4: weedkilling efficacy by foliar treatment; N: chickweed
Outline: as §1

directly sown rice [28] = assay: Test Example 4: foliar treatment, effect on crop; b: directly sown rice
Outline: as §1

common wind-grass [29] = assay: Test Example 4: weedkilling efficacy by foliar treatment; J: common wind-grass
Experimental: as §3, §4, §5, §6, §7

directly sown rice [30] = assay: Test Example 3: soil treatment, effect on crop; b: directly sown rice
Outline: as §2

soybean [31] = assay: Test Example 3: soil treatment, effect on crop; d: soybean
Outline: as §2

beet = assay: Test Example 4: foliar treatment, effect on crop; f: beet
Outline: as §1

green foxtail [32] = assay: Test Example 4: weedkilling efficacy by foliar treatment; E: green foxtail
Outline: as §1

oval-leafed pondweed [33] = assay: Test Example 2: weedkilling efficacy, growth period weed treatment in the submerged state; C: oval-leafed pondweed
Outline: as §9

soybean [34] = assay: Test Example 4: foliar treatment, effect on crop; d: soybean
Outline: as §1

black-grass [35] = assay: Test Example 3: weedkilling efficacy through soil treatment; H: black-grass
Outline: as §2

Indian mallow [36] = assay: Test Example 4: weedkilling efficacy by foliar treatment; K: Indian mallow
Outline: as §1

corn [37] = assay: Test Example 3: soil treatment, effect on crop; c: corn
Outline: as §2

bulrush [38] = assay: Test Example 1: weedkilling efficacy, preemergent weed treatment in the submerged state; B: bulrush
Outline: as §8

CC1=C(c2cccnc2F)C(=O)N(C(C)(C)C(=O)Nc2cc(C(F)(F)F)cc(Cl)n2)CO1 [B-2-16]
e (wheat) effect on crop grade (wheat [1]): 3 (weed kill ratio 40% or more, less than 70%) | e (wheat) effect on crop grade (wheat [2]): 1 (weed kill ratio 5% or more, less than 20%) | g (rapeseed) effect on crop grade (rapeseed [3]): 4 (weed kill ratio 70% or more, less than 90%) | F (barnyard grass) weedkilling efficacy grade (barnyard grass [4]): 5 (weed kill ratio 90% or more, (practically complete withering)) | G (wild oat) weedkilling efficacy grade (wild oat [5]): 5 (weed kill ratio 90% or more, (practically complete withering)) | a (transplanted rice) effect on crop grade (transplanted rice): 4 (weed kill ratio 70% or more, less than 90%) | O (catchweed) weedkilling efficacy grade (catchweed): 4 (weed kill ratio 70% or more, less than 90%) | I (Italian ryegrass) weedkilling efficacy grade (Italian ryegrass [6]): 5 (weed kill ratio 90% or more, (practically complete withering)) | D (crabgrass) weedkilling efficacy grade (crabgrass [7]): 5 (weed kill ratio 90% or more, (practically complete withering)) | G (wild oat) weedkilling efficacy grade (wild oat [8]): 5 (weed kill ratio 90% or more, (practically complete withering)) | K (Indian mallow) weedkilling efficacy grade (Indian mallow [9]): 2 (weed kill ratio 20% or more, less than 40%) | F (barnyard grass) weedkilling efficacy grade (barnyard grass [10]): 5 (weed kill ratio 90% or more, (practically complete withering)) | L (redroot pigweed) weedkilling efficacy grade (redroot pigweed [11]): 4 (weed kill ratio 70% or more, less than 90%) | N (chickweed) weedkilling efficacy grade (chickweed [12]): 4 (weed kill ratio 70% or more, less than 90%) | M (fig-leafed goosefoot) weedkilling efficacy grade (fig-leafed goosefoot [13]): 4 (weed kill ratio 70% or more, less than 90%) | c (corn) effect on crop grade (corn [14]): 4 (weed kill ratio 70% or more, less than 90%) | D (crabgrass) weedkilling efficacy grade (crabgrass [15]): 5 (weed kill ratio 90% or more, (practically complete withering)) | J (common wind-grass) weedkilling efficacy grade (common wind-grass [16]): 5 (weed kill ratio 90% or more, (practically complete withering)) | I (Italian ryegrass) weedkilling efficacy grade (Italian ryegrass [17]): 5 (weed kill ratio 90% or more, (practically complete withering)) | B (bulrush) weedkilling efficacy grade (bulrush [18]): 5 (weed kill ratio 90% or more, (practically complete withering)) | A (barnyard grass) weedkilling efficacy grade (barnyard grass [19]): 5 (weed kill ratio 90% or more, (practically complete withering)) | E (green foxtail) weedkilling efficacy grade (green foxtail [20]): 5 (weed kill ratio 90% or more, (practically complete withering)) | A (barnyard grass) weedkilling efficacy grade (barnyard grass [21]): 5 (weed kill ratio 90% or more, (practically complete withering)) | g (rapeseed) effect on crop grade (rapeseed [22]): 3 (weed kill ratio 40% or more, less than 70%) | L (redroot pigweed) weedkilling efficacy grade (redroot pigweed [23]): 0 (weed kill ratio 5% or less (practically no effect)) | H (black-grass) weedkilling efficacy grade (black-grass [24]): 5 (weed kill ratio 90% or more, (practically complete withering)) | C (oval-leafed pondweed) weedkilling efficacy grade (oval-leafed pondweed [25]): 5 (weed kill ratio 90% or more, (practically complete withering)) | M (fig-leafed goosefoot) weedkilling efficacy grade (fig-leafed goosefoot [26]): 5 (weed kill ratio 90% or more, (practically complete withering)) | N (chickweed) weedkilling efficacy grade (chickweed [27]): 4 (weed kill ratio 70% or more, less than 90%) | b (directly sown rice) effect on crop grade (directly sown rice [28]): 5 (weed kill ratio 90% or more, (practically complete withering)) | J (common wind-grass) weedkilling efficacy grade (common wind-grass [29]): 5 (weed kill ratio 90% or more, (practically complete withering)) | b (directly sown rice) effect on crop grade (directly sown rice [30]): 5 (weed kill ratio 90% or more, (practically complete withering)) | d (soybean) effect on crop grade (soybean [31]): 1 (weed kill ratio 5% or more, less than 20%) | f (beet) effect on crop grade (beet): 4 (weed kill ratio 70% or more, less than 90%) | E (green foxtail) weedkilling efficacy grade (green foxtail [32]): 5 (weed kill ratio 90% or more, (practically complete withering)) | C (oval-leafed pondweed) weedkilling efficacy grade (oval-leafed pondweed [33]): 5 (weed kill ratio 90% or more, (practically complete withering)) | d (soybean) effect on crop grade (soybean [34]): 4 (weed kill ratio 70% or more, less than 90%) | H (black-grass) weedkilling efficacy grade (black-grass [35]): 5 (weed kill ratio 90% or more, (practically complete withering)) | K (Indian mallow) weedkilling efficacy grade (Indian mallow [36]): 5 (weed kill ratio 90% or more, (practically complete withering)) | c (corn) effect on crop grade (corn [37]): 1 (weed kill ratio 5% or more, less than 20%) | B (bulrush) weedkilling efficacy grade (bulrush [38]): 5 (weed kill ratio 90% or more, (practically complete withering))
